The results in this text go back to US11203591B2, “Substituted 6-azabenzimidazole compounds” (Gilead Sciences, Inc., priority 2018, dated 2021).

One may read the IC50 as the concentration at which inhibition is half-maximal.

Chain of human HPK1 (MAP4K1) (Q92918 17-274): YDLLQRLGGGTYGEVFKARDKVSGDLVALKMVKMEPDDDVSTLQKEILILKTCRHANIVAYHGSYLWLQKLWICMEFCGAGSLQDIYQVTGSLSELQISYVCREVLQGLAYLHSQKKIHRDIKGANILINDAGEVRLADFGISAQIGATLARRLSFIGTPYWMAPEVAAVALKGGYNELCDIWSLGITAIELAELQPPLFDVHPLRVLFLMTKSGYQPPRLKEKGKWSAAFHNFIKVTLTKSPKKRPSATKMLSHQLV

The target in one assay is human HPK1 (MAP4K1) (Homo sapiens (Human), UniProt Q92918). Briefly: HPK1 IC50 Assay (TR-FRET peptide phosphorylation). It counts as biochemical. The conditions noted are these: 0.15 nM HPK1, 10 μM ATP, 1 μM STK S1 peptide substrate; geometric mean. The gist of the method:
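Pre-activated, dually phosphorylated baculovirus-expressed HPK1 kinase domain (0.15 nM) preincubated 15 min with compound, then reacted 3 h at 25° C with 10 μM ATP and 1 μM STK S1 peptide in BES pH 7.0 buffer. Phosphopeptide read by TR-FRET (665/620 nm); four-parameter fit, geometric-mean IC50.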
For the compound `CCNC(=O)c1cc(Nc2nc(-c3cc4c(nc3F)C(C)(C)C(=O)N4[C@H]3C[C@@](C)(N4CCCCC4)C3)cc3ncn(C(C)C)c23)c(F)c(F)c1C` [Example 271, N-ethyl-3,4-difluoro-5-((6-(5-fluoro-3,3-dimethyl-1-((1s,3s)-3-methyl-3-(piperidin-1-yl)cyclobutyl)-2-oxo-2,3-dihydro-1H-pyrrolo[3,2-b]pyridin-6-yl)-3-isopropyl-3H-imidazo[4,5-c]pyridin-4-yl)amino)-2-methylbenzamide], half-maximal inhibition (IC50) required 0.06 nM.
Still for that read-out and setting: for `Cc1c(C(=O)NCC(F)F)cc(Nc2nc(-c3ccc4c(c3)N([C@H]3C[C@@](C)(N5CCCCC5)C3)C(=O)C4(C)C)cc3ncn(C(C)C)c23)c(F)c1F` [Example 268, N-(2,2-difluoroethyl)-5-((6-(3,3-dimethyl-1-((1s,3s)-3-methyl-3-(piperidin-1-yl)cyclobutyl)-2-oxoindolin-6-yl)-3-isopropyl-3H-imidazo[4,5-c]pyridin-4-yl)amino)-3,4-difluoro-2-methylbenzamide] the value was 0.03 nM; for `CC(C)n1cnc2cc(-c3ccc4c(c3)N([C@H]3C[C@@](C)(N5CCCCC5)C3)C(=O)C4(C)C)nc(Nc3cc(C(=O)NC4(CF)CC4)c(Cl)cc3F)c21` [Example 293, 2-chloro-5-((6-(3,3-dimethyl-1-((1s,3s)-3-methyl-3-(piperidin-1-yl)cyclobutyl)-2-oxoindolin-6-yl)-3-isopropyl-3H-imidazo[4,5-c]pyridin-4-yl)amino)-4-fluoro-N-(1-(fluoromethyl)cyclopropyl)benzamide], 0.05 nM; for `CCNC(=O)c1cc(Nc2nc(-c3cc4c(nc3F)C(C)(C)C(=O)N4[C@H]3C[C@@](C)(N4CCCC5(CC5)C4)C3)cc3ncn(C(C)C)c23)c(F)c(F)c1Cl` [Example 270, 2-chloro-N-ethyl-3,4-difluoro-5-((6-(5-fluoro-3,3-dimethyl-1-((1s,3s)-3-methyl-3-(5-azaspiro[2.5]octan-5-yl)cyclobutyl)-2-oxo-2,3-dihydro-1H-pyrrolo[3,2-b]pyridin-6-yl)-3-isopropyl-3H-imidazo[4,5-c]pyridin-4-yl)amino)benzamide], 0.1 nM.
On the same count and under the same terms, for `Cc1cc(F)c(Nc2nc(-c3ccc4c(c3)N([C@]3(C)C[C@H](N5CCCCC5)C3)C(=O)C4(C)C)cc3ncn(C(C)C)c23)cc1C(=O)NC1(C(F)F)CC1` [Example 295, N-(1-(difluoromethyl)cyclopropyl)-5-((6-(3,3-dimethyl-1-((1s,3s)-1-methyl-3-(piperidin-1-yl)cyclobutyl)-2-oxoindolin-6-yl)-3-isopropyl-3H-imidazo[4,5-c]pyridin-4-yl)amino)-4-fluoro-2-methylbenzamide] the value was 0.1 nM; for `CC(C)n1cnc2cc(-c3cnc4c(c3)N([C@H]3C[C@@](C)(N5CCCC6(CC6)C5)C3)C(=O)C4(C)C)nc(Nc3cc(C(=O)NCC(F)F)c(Cl)c(F)c3F)c21` [Example 282, 2-chloro-N-(2,2-difluoroethyl)-5-((6-(3,3-dimethyl-1-((1s,3s)-3-methyl-3-(5-azaspiro[2.5]octan-5-yl)cyclobutyl)-2-oxo-2,3-dihydro-1H-pyrrolo[3,2-b]pyridin-6-yl)-3-isopropyl-3H-imidazo[4,5-c]pyridin-4-yl)amino)-3,4-difluorobenzamide], 0.1 nM; for `CCNC(=O)c1cc(Nc2nc(-c3cc4c(nc3F)C(C)(C)C(=O)N4[C@H]3C[C@@](C)(N4CCCC5(CC5)C4)C3)cc3ncn(C(C)C)c23)c(F)c(F)c1C` [Example 279, N-ethyl-3,4-difluoro-5-((6-(5-fluoro-3,3-dimethyl-1-((1s,3s)-3-methyl-3-(5-azaspiro[2.5]octan-5-yl)cyclobutyl)-2-oxo-2,3-dihydro-1H-pyrrolo[3,2-b]pyridin-6-yl)-3-isopropyl-3H-imidazo[4,5-c]pyridin-4-yl)amino)-2-methylbenzamide], 0.1 nM.

Still in this assay, the particulars now being: recombinant HPK1 kinase domain 0.15 nM, 10 μM ATP, 1 μM STK S1 peptide; geometric mean of multiple experiments.
Take `CNC(=O)c1cc(Nc2nc(-c3ccc4c(c3)N(C3CC(N5CC[C@H](C(F)F)C5)C3)C(=O)C4(C)C)cc3ncn(C(C)C)c23)ccc1C` (stereo partly drawn) [Example 104A, 5-((6-(1-((1s,3s)-3-(3-(difluoromethyl)pyrrolidin-1-yl)cyclobutyl)-3,3-dimethyl-2-oxoindolin-6-yl)-3-isopropyl-3H-imidazo[4,5-c]pyridin-4-yl)amino)-N,2-dimethylbenzamide]: the IC50 was 0.2 nM.
The same measure, in the same setting: for `CNC(=O)c1cc(Nc2nc(-c3ccc4c(c3)N([C@H]3C[C@@H](N5CCCCC5)C3)C(=O)C43CCN(S(C)(=O)=O)CC3)cc3ncn(C4CC4)c23)ccc1C` [Example 168] the value was 0.1 nM; for `Cc1ccc(Nc2nc(-c3ccc4c(c3)N([C@H]3C[C@@H](N5CCCCC5)C3)C(=O)C4(C)C)cc3ncn(C(C)C)c23)cc1C(=O)NC1CCC1` [Example 2], 0.1 nM.
Same read-out and setting: the same measure for `CNC(=O)c1cc(Nc2nc(-c3ccc4c(c3)N([C@H]3C[C@@H](N5C[C@H]6CC[C@@H]5C6)C3)C(=O)C43CCN(C(C)=O)CC3)cc3ncn(C4CC4)c23)ccc1C` [Example 44]: 0.2 nM; for `CC(=O)N1CCC2(CC1)C(=O)N([C@H]1C[C@@H](N3CCCCC3)C1)c1cc(-c3cc4ncn(C(C)C)c4c(Nc4cc(C(=O)NC5CC5)c(C)cc4F)n3)ccc12` [Example 91]: 0.1 nM; for `CNC(=O)c1cc(Nc2nc(-c3ccc4c(c3)N([C@H]3C[C@@H](N5CCCC5)C3)C(=O)C4(C)C)cc3ncn(C(C)C)c23)ccc1C` [Example 103]: 0.1 nM.
Regarding `Cc1ccc(Nc2nc(-c3ccc4c(c3)N([C@H]3C[C@@H](N5CCCCC5)C3)C(=O)C4(F)F)cc3ncn(C4CC4)c23)cc1C(N)=O` [Example 184], the IC50 was determined as 0.9 nM.
As for `Cc1ccc(Nc2nc(-c3cnc4c(c3)N([C@H]3C[C@@H](N5CCCCC5)C3)C(=O)C4(C)C)cc3ncn(C(C)C)c23)cc1C(=O)NC1(C(F)F)CC1` [Example 19], the IC50 turned out to be 0.3 nM.
Still for that read-out and setting: for `CCCNC(=O)c1cc(Nc2nc(-c3ccc4c(c3)N([C@H]3C[C@@H](N5CCCCC5)C3)C(=O)C4(C)C)cc3ncn(C(C)C)c23)ccc1C` [Example 24] the value was 0.08 nM; for `CNC(=O)c1cc(Nc2nc(-c3ccc4c(c3)N([C@H]3C[C@@H](N5CCCCC5)C3)C(=O)C43CCN(C(=O)C45CC(C4)C5)CC3)cc3ncn(C4CC4)c23)ccc1C` [Example 156], 0.06 nM; for `Cc1cc(F)c(Nc2nc(-c3ccc4c(c3)N([C@H]3C[C@@H](N5CCCCC5)C3)C(=O)C4(C)C)cc3ncn(C(C)C)c23)cc1C(=O)NC1(C(F)F)CC1` [Example 65], 0.1 nM.
The same measure, in the same setting: the same measure for `Cc1c(C(=O)NC2(C(F)F)CC2)cc(Nc2nc(-c3cnc4c(c3)N([C@H]3C[C@@](C)(N5CCOC6(CC6)C5)C3)C(=O)C4(C)C)cc3ncn(C(C)C)c23)c(F)c1F` [Example 193, N-(1-(Difluoromethyl)cyclopropyl)-5-((6-(3,3-dimethyl-1-((1s,3s)-3-methyl-3-(4-oxa-7-azaspiro[2.5]octan-7-yl)cyclobutyl)-2-oxo-2,3-dihydro-1H-pyrrolo[3,2-b]pyridin-6-yl)-3-isopropyl-3H-imidazo[4,5-c]pyridin-4-yl)amino)-3,4-difluoro-2-methylbenzamide]: 0.2 nM; for `CNC(=O)c1cc(Nc2nc(-c3ccc4c(c3)N([C@H]3C[C@@H](N5CC[C@H](F)C5)C3)C(=O)C43CCN(C4COC4)CC3)cc3ncn(C(C)C)c23)c(F)cc1C` [Example 72]: 0.2 nM; for `CNC(=O)c1cc(Nc2nc(-c3ccc4c(c3)N([C@H]3C[C@@H](N5CCCCC5)C3)C(=O)C4(C)C)cc3ncn(C(C)C)c23)c(F)cc1C` [Example 175]: 0.1 nM.
As to `Cc1ccc(Nc2nc(-c3ccc4c(c3)N([C@H]3C[C@@H](N5CCOC(C)(C)C5)C3)C(=O)C4(C)C)cc3ncn(C4CC4)c23)cc1C(N)=O` [Example 16], the IC50 was 0.1 nM.
Still for that read-out and setting: for `CC(C)n1cnc2cc(-c3ccc4c(c3)N([C@H]3C[C@@](C)(N5CCCCC5)C3)C(=O)C4(C)C)nc(Nc3cc(C(=O)NC4(C(F)F)CC4)ccc3F)c21` [Example 238, N-(1-(Difluoromethyl)cyclopropyl)-3-((6-(3,3-dimethyl-1-((1s,3s)-3-methyl-3-(piperidin-1-yl)cyclobutyl)-2-oxoindolin-6-yl)-3-isopropyl-3H-imidazo[4,5-c]pyridin-4-yl)amino)-4-fluorobenzamide] the value was 0.02 nM.
Regarding `Cc1c(C(=O)NC2(C(F)F)CC2)cc(Nc2nc(-c3cnc4c(c3)N([C@H]3C[C@@](C)(N5CC6CCC(C6)C5)C3)C(=O)C4(C)C)cc3ncn(C(C)C)c23)c(F)c1F` [Example 230, 5-((6-(1-((1s,3s)-3-(3-Azabicyclo[3.2.1]octan-3-yl)-3-methylcyclobutyl)-3,3-dimethyl-2-oxo-2,3-dihydro-1H-pyrrolo[3,2-b]pyridin-6-yl)-3-isopropyl-3H-imidazo[4,5-c]pyridin-4-yl)amino)-N-(1-(difluoromethyl)cyclopropyl)-3,4-difluoro-2-methylbenzamide], the IC50 turned out to be 0.1 nM.
On to `Cc1c(C(=O)NC2(C(F)F)CC2)cc(Nc2nc(-c3cnc4c(c3)N([C@H]3C[C@@](C)(N5CCCOCC5)C3)C(=O)C4(C)C)cc3ncn(C(C)C)c23)c(F)c1F` [Example 208, N-(1-(Difluoromethyl)cyclopropyl)-5-((6-(3,3-dimethyl-1-((1s,3s)-3-methyl-3-(1,4-oxazepan-4-yl)cyclobutyl)-2-oxo-2,3-dihydro-1H-pyrrolo[3,2-b]pyridin-6-yl)-3-isopropyl-3H-imidazo[4,5-c]pyridin-4-yl)amino)-3,4-difluoro-2-methylbenzamide], for which the half-maximal inhibitory concentration (IC50) turned out to be 0.09 nM.
Same read-out and setting: for `CNC(=O)c1cc(Nc2nc(-c3cnc4c(c3)N([C@H]3C[C@@H](N5CCCCC5)C3)C(=O)C4(C)C)cc3ncn(C(C)C)c23)c(F)cc1C` [Example 111] the value was 0.3 nM.
Same read-out and setting: the same measure for `CNC(=O)c1cc(Nc2nc(-c3ccc4c(c3)N([C@H]3C[C@@H](NC(C)C)C3)C(=O)C4(C)C)cc3ncn(C(C)C)c23)c(F)cc1C` [Example 14]: 0.3 nM.
